Peptide text beside a SMILES is read from it.
What was measured:
platelets (400 K/μL) = test: Magnetic resonance imaging of loaded platelet samples; settings: positive control
Excerpt: FIGS. 9A-B show a schematic (FIG. 9A) and magnetic resonance imaging (FIG. 9B).
FIGS. 9A-B show a schematic (FIG. 9A) and magnetic resonance imaging (FIG. 9B). […] Sample 1A included loading buffer and platelets (400 K/μL), sample 1B included loading buffer alone, sample 2A included loading buffer, Gd-DOTA-CPP-FITC, and platelets (400 K/μL), and sample 2B included loading buffer and Gd-DOTA-FITC-CPP only (washed) as another negative control.

platelets = test: Flow cytometry of FITC-TAT loading into platelets in the presence of platelet anti-aggregation compounds; assay type: cell-based; settings: 100 μM FITC-TAT, 60 minutes, loading buffer, 37° C.
Experimental: FIG. 3 is a flow cytometry histogram of samples incubated with 100 μM FITC-TAT in the presence of platelet anti-aggregation compounds PGE1, GR144053, and eptifibatide.
Re-suspend platelets in loading buffer (Table 1) or desired incubation solution at a concentration of 500,000 platelets/μL and incubate at 37° C. with low frequency agitation on a rocker for up to 3 hours.
Wash platelets with loading buffer (Table 1) 3× to remove unloaded agents (e.g., FITC-TAT, FITC-labeled magnetic nanoparticles) and use the remaining sample for plate reader, flow cytometer, and/or microscope analysis.
The results for the above formulation are provided herein. A Tecan Infinite M200 Pro plate reader was used for quantification of MRI agent loading. A Novocyte flow cytometer was used to determine both MRI agent loading and percent of platelets effectively loaded. An Olympus microscope was used to visualize the loading into platelets.
Negative controls included 0 μM FITC-TAT in loading buffer and 50 μM fluorescein in loading buffer. All samples were incubated in loading buffer at 37° C. with low frequency agitation on a rocker.

| Structure (SMILES) | detection by magnetic resonance imaging (platelets (400 K/μL); 100 μM) | detection by magnetic resonance imaging (platelets (400 K/μL); 100 mM) | effect of anti-aggregation compound on platelet loading / distribution of FITC-CPP (flow cytometry histogram) (platelets) |
| --- | --- | --- | --- |
| [Cl][Gd]([Cl])[Cl] [GdCl3] | detection | detection | – |
| CCCCC[C@H](O)/C=C/[C@H]1[C@H](O)CC(=O)[C@@H]1CCCCCCC(=O)O [PGE1, Prostaglandin E1] | – | – | improved platelet loading |
| Cl.Cl.Cl.N=C(N)c1ccc(N2CCN(C3CCN(CC(=O)O)CC3)CC2)cc1 [GR144053] | – | – | little to no effect |
| N=C(N)NCCCC[C@@H]1NC(=O)CCSSC[C@@H](C(N)=O)NC(=O)[C@@H]2CCCN2C(=O)[C@H](Cc2c[nH]c3ccccc23)NC(=O)[C@H](CC(=O)O)NC(=O)CNC1=O [eptifibatide] (HELM PEPTIDE1{[O=C(CCS[*:3])[*:2]].[N=C(N)NCCCC[C@H](N[*:1])C(=O)[*:2]].G.D.W.P.C.[am]}$PEPTIDE1,PEPTIDE1,1:R3-7:R3$$$V2.0) | – | – | little to no effect |

— patent US20210189341A1, “PLATELET DIAGNOSTIC IMAGING AGENTS” (Cellphire, Inc., priority 2019, published 2021)
